Read-outs that look alike come from different tables or passages of the source.
Legend:
[1] = molecular target: T1, ICE (interleukin-1β converting enzyme) (Homo sapiens, UniProt P29466); assay: ICE inhibition, Ki, fluorescence assay with Ac-Tyr-Val-Ala-Asp-AMC; type: biochemical; details: 15 μM substrate Ac-Tyr-Val-Ala-Asp-AMC; 0.24 nM ICE; reversible, competitive model
T1 sequence (P29466 120-297 limits assumed): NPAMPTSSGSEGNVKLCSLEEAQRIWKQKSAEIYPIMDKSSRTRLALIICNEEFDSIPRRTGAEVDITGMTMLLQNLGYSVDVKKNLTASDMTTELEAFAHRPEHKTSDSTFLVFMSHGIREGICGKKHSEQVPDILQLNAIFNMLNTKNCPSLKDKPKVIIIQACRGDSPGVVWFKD
T1 sequence (P29466 317-404 limits assumed): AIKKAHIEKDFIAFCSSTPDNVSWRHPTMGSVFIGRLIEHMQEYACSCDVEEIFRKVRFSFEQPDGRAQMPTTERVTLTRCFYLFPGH
Description: Substrate hydrolysis is monitored for 300 seconds by observing the fluorescence of released AMC using excitation at 380 nm and emission at 460 nm. Mean rates of substrate hydrolysis are evaluated by linear-regression analysis of the fluorescence vs time traces. […] ICE Colorimetric Dose-Response (IC50) Assay

[2] = molecular target: T1, ICE (interleukin-1β converting enzyme); assay: ICE Colorimetric Dose-Response (IC50) Assay; type: biochemical; details: 50 μM Ac-Tyr-Val-Ala-Asp-pNA, 60 min preincubation, pH 7.5, 25° C.
Description: Substrate hydrolysis is monitored for 300 seconds by observing the fluorescence of released AMC using excitation at 380 nm and emission at 460 nm. Mean rates of substrate hydrolysis are evaluated by linear-regression analysis of the fluorescence vs time traces. […] ICE Colorimetric Dose-Response (IC50) Assay Diluted inhibitor stocks are prepared by two-fold serial dilution from a primary stock whose concentration is selected (based on screening results or on prior attempts at IC50 evaluation) to achieve approximately 95% inhibition in the most concentrated well. Aliquots of each dilution are transferred to a microtitre plate in triplicate. […] The activated enzyme is then aliquoted into wells containing inhibitor or vehicle, and the plate is preincubated for 60 minutes at ambient temperature. Substrate ([…]) is added to each well to a final concentration of 50 μM, and plates are placed in the microtitre plate-reader thermostated to 25° C. Beginning 5 minutes after addition of substrate, absorbance (405 nm) of wells is monitored for 1 hour, and activity is calculated as the mean rate of change in absorbance during this interval.

[3] = tested on: IL-1β production in human peripheral blood mononuclear cells (PBMCs); assay: inhibition of LPS-stimulated IL-1β production in human PBMCs (ELISA); type: cell-based; details: LPS stimulated overnight, mature IL-1β by ELISA
Description: (§1) Further evidence that compounds of Formula I are inhibitors of ICE is provided by their ability to inhibit IL-1β production in human peripheral blood mononuclear cells (PBMCs) as described herein. PBMCs are isolated from heparinized blood by centrifugation over a ficoll cushion, then washed three times with phosphate-buffered saline. PBMCs are suspended in a medium containing RPMI 1640 with glutamine, penicillin, streptomycin and 2% human AB serum, then plated at 10^6 cells per well in 96 well flat bottom plates. PBMCs are stimulated overnight with 10 ngmL of lipopolysaccharide (LPS, E. coli strain 0111:B4; Calbiochem) in the presence or absence of a compound of Formulas I or II. Medium is harvested and the level of mature IL-1β was determined using an ELISA kit from R & D Systems. Cells were cultured for an additional 4 hours in the presence of 3-(4,5-dimethylthiazol-2-yl)-2,5-diphenyltetrazolium bromide (MTT) to determine viability.

PBMC viability (MTT) = type: cell-based; details: human PBMCs, additional 4 hours, read-out: PBMC TC50
Description: as §1

Ich-2 = molecular target: T2, Ich-2 (Homo sapiens, UniProt P49662); assay: Ich-2 Colorimetric Dose-Response (IC50) Assay; type: biochemical; details: 64 nM enzyme, 60 μM Ac-Leu-Glu-Val-Asp-pNA
T2 sequence (P49662 81-270 limits assumed): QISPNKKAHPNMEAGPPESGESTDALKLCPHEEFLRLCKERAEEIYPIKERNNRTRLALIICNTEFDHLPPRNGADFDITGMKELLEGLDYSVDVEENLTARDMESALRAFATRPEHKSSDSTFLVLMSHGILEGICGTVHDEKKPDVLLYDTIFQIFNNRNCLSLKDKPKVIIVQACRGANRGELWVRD
T2 sequence (P49662 290-377 limits assumed): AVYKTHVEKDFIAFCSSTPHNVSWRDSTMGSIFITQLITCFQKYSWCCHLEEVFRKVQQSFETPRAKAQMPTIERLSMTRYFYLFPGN
Description: Diluted inhibitor stocks are prepared by two-fold serial dilution from a primary stock whose concentration is selected (based on screening results or on prior attempts at IC50 evaluation) to achieve approximately 95% inhibition in the most concentrated well. Aliquots of each dilution are transferred to a microtitre plate in triplicate.
ICE enzyme is diluted to approximately 24 nM in HGE buffer (100 mM Hepes pH 7.5, 0.5 mM EDTA, 20% glycerol, 0.1% Bovine Serum Albumin (BSA), and activated by adding dithiothreitol (DTT) to a final concentration of 5 mM. The activated enzyme is then aliquoted into wells containing inhibitor or vehicle, and the plate is preincubated for 60 minutes at ambient temperature. Substrate (Ac-Tyr-Val-Ala-Asp-pNA) is added to each well to a final concentration of 50 μM, and plates are placed in the microtitre plate-reader thermostated to 25° C. Beginning 5 minutes after addition of substrate, absorbance (405 nm) of wells is monitored for 1 hour, and activity is calculated as the mean rate of change in absorbance during this interval.
Ich-2 Colorimetric Dose-Response (IC50 Assay
Inhibition of Ich-2 enzyme is assayed as described above for ICE, except that enzyme is used at 64 nM, and 60 μM of the Ich-2-specific substrate Ac-Leu-Glu-Val-Asp-pNA is used instead of the ICE substrate Ac-Tyr-Val-Ala-Asp-pNA.

Compound | Ki [1] [µM] | IC50 [2] [µM] | IC50 (Ich-2) [µM] | IC50 ([3]; PBMC) [µM] | CC50 at 4 h (PBMC viability (MTT)) [µM] | IC50 ([3]; read-out: PBMC IC50) [µM]
O=C(O)C[C@H](NC(=O)OCc1ccccc1)C(=O)CON1C(=O)C2C3C=CC(O3)C2C1=O (some centres unmarked) [Example 3, 3-Benzyloxycarbonylamino-5-(3,5-dioxo-10-oxa-4-aza-tricyclo[5.2.1.0^2,6]dec-8-en-4-yloxy)-4-oxo-pentanoic acid] | 2.1 | 0.46 | 0.1 | 1000 | 1000 | –
CC(NC(=O)C(NC(=O)OCc1ccccc1)C(C)C)C(=O)NC(CC(=O)O)C(=O)CON1C(=O)Cc2ccccc21 (centres unmarked) [Example 8, 3-[2-(2-benzyloxicarbonylamino-3-methyl-butyrylamino)-propionylamino]-4-oxo-5-(2-oxo-2,3-dihydro-indol-1-yloxy)-pentanoic acid] | 0.002 | 0.003 | 0.005 | 3 | – | –
COC(=O)CC1CCCC2CC(=O)N(OCC(=O)C(CC(=O)O)NC(=O)C(C)NC(=O)C(NC(=O)OCc3ccccc3)C(C)C)C12 (centres unmarked) [Example 7] | 0.007 | 0.026 | 0.14 | – | – | 4.8

The next lines start with results.

Ki [1] [µM] | IC50 [2] [µM] | IC50 (Ich-2) [µM] | Compound | IC50 ([3]; PBMC) [µM] | CC50 at 4 h (PBMC viability (MTT)) [µM] | IC50 ([3]; read-out: PBMC IC50) [µM]
79 | 260 | – | O=C(O)CC(NC(=O)OCc1ccccc1)C(=O)CONC(=O)Cc1ccccc1 (centres unmarked) [Example 1, 3-Benzyloxycarbonylamino-4-oxo-5-phenylacetylaminooxy-pentanoic acid] | 817 | – | –
87 | 397 | – | O=C(O)C[C@H](NC(=O)OCc1ccccc1)C(=O)CON1CCCC1=O [Example 2, 3-Benzyloxycarbonylamino-4-oxo-5-(2-oxo-pyrrolidin-1-yloxy)-pentanoic acid] | – | – | –
1.6 | 3.1 | 0.079 | O=C(O)CC(NC(=O)OCc1ccccc1)C(=O)CON1C(=O)Cc2ccccc21 (centres unmarked) [Example 4, 3-Benzyloxycarbonylamino-5-(2-oxo-2,3-dihydro-indol-1-yloxy)-4-oxo-pentannic acid] | 1000 | 1000 | –
9.2 | 37 | – | O=C(O)CC(NC(=O)OCc1ccccc1)C(=O)CON1C(=O)CC2CCCCC21 (centres unmarked) [Example 6] | – | – | –
15 | 80 | 34 | COC(=O)CC1CCCC2CC(=O)N(OCC(=O)[C@H](CC(=O)O)NC(=O)OCc3ccccc3)C12 (some centres unmarked) [Example 5, 3-Benzyloxycarbonylamino-5-(7-methoxycarbonylmethyl-2-oxo-octahydro-indol-1-yloxy)-4-oxo-pentanoic acid] | 883 | – | –

— patent publication US5919790A, “Hydroxamate inhibitors of interleukin-1β converting enzyme” (Warner-Lambert Company, priority 1997, dated 1999)
